Species: Rattus norvegicus
Test: Open TG-GATES - Regimen: Daily Repeat
Type: toxicity, organism-based, Sprague-Dawley
Parameters: regimen Daily Repeat, gender Male, age 6 weeks
Settings: in vivo, po, route gavage; for APTT / Bas / Eos / Fbg / Hb / Ht / Lym / MCH / MCHC / MCV / Mono / Neu / PT / Plat / RBC / Ret / WBC: tissue Blood; for KIDNEY_L / KIDNEY_R / KIDNEY_TOTAL: tissue Kidney; for LIVER: tissue Liver; for A/G / ALP / ALT / AST / BUN / CRE / Ca / Cl / DBIL / GLC / IP / K / LDH / Na / PL / RALB / TBIL / TC / TG / TP / gamma-GTP: tissue Plasma
[1] = 30 mg/kg, 72 h, dose level Middle, time 3 day
[2] = 30 mg/kg, […], dose level Middle, time 7 day
[3] = 30 mg/kg, […], dose level Middle, time 14 day
[4] = 30 mg/kg, […], dose level Middle, time 28 day
[5] = 100 mg/kg, 72 h, dose level High, time 3 day
[6] = 100 mg/kg, […], dose level High, time 7 day
[7] = 100 mg/kg, […], dose level High, time 14 day
[8] = 100 mg/kg, […], dose level High, time 28 day

## CCCc1cc(=O)[nH]c(=S)[nH]1 [PROPYLTHIOURACIL]
[1]
  TERMINAL_BW: 205.6 g
  APTT: 15.9 s
  Bas: 0%
  Eos: 0.4%
  Fbg: 242.4 mg/dL
  Hb: 13.6 g/dL
  Ht: 40.9%
  Lym: 73%
  MCH: 21.9 pg
  MCHC: 33.3%
  MCV: 65.7 fL
  Mono: 7.4%
  Neu: 19.2%
  PT: 12.2 s
  Plat: 114 x10_4/uL
  RBC: 623 x10_4/ul
  Ret: 6.7%
  WBC: 122.6 x10_2/uL
  KIDNEY_L: 0.9 g
  KIDNEY_R: 0.9 g
  KIDNEY_TOTAL: 1.8 g
  LIVER: 11.4 g
  A/G: 1.8
  ALP: 907.2 IU/L
  ALT: 36 IU/L
  AST: 64 IU/L
  BUN: 18.2 mg/dL
  CRE: 0.5 mg/dL
  Ca: 11.3 mg/dL
  Cl: 106 meq/L
  DBIL: 0.024 mg/dL
  GLC: 192 mg/dL
  IP: 7.6 mg/dL
  K: 4.6 meq/L
  LDH: 150.8 IU/L
  Na: 138.4 meq/L
  PL: 183 mg/dL
  RALB: 3.9 g/dL
  TBIL: 0.3 mg/dL
  TC: 106.4 mg/dL
  TG: 97 mg/dL
  TP: 6 g/dL
  gamma-GTP: 1.2 IU/L
[2]
  TERMINAL_BW: 228.6 g
  APTT: 16.2 s
  Bas: 0%
  Eos: 0.2%
  Fbg: 264 mg/dL
  Hb: 13.7 g/dL
  Ht: 40.3%
  Lym: 82.4%
  MCH: 21.5 pg
  MCHC: 34.1%
  MCV: 63.2 fL
  Mono: 8.4%
  Neu: 9%
  PT: 12.9 s
  Plat: 122.5 x10_4/uL
  RBC: 638 x10_4/ul
  Ret: 3.7%
  WBC: 123.8 x10_2/uL
  KIDNEY_L: 0.9 g
  KIDNEY_R: 0.9 g
  KIDNEY_TOTAL: 1.8 g
  LIVER: 12.4 g
  A/G: 1.7
  ALP: 735.2 IU/L
  ALT: 31.6 IU/L
  AST: 54.8 IU/L
  BUN: 21.8 mg/dL
  CRE: 0.5 mg/dL
  Ca: 11.6 mg/dL
  Cl: 106 meq/L
  DBIL: 0.018 mg/dL
  GLC: 173.6 mg/dL
  IP: 6.8 mg/dL
  K: 4.6 meq/L
  LDH: 85.8 IU/L
  Na: 140.6 meq/L
  PL: 170.6 mg/dL
  RALB: 4.2 g/dL
  TBIL: 0.3 mg/dL
  TC: 111.2 mg/dL
  TG: 80.2 mg/dL
  TP: 6.7 g/dL
  gamma-GTP: 2.2 IU/L
[3]
  TERMINAL_BW: 248.6 g
  APTT: 16.6 s
  Bas: 0%
  Eos: 0.2%
  Fbg: 204.2 mg/dL
  Hb: 14.8 g/dL
  Ht: 43.8%
  Lym: 86.2%
  MCH: 21 pg
  MCHC: 33.7%
  MCV: 62.2 fL
  Mono: 3.6%
  Neu: 10%
  PT: 13.8 s
  Plat: 89 x10_4/uL
  RBC: 705.4 x10_4/ul
  Ret: 1.5%
  WBC: 134 x10_2/uL
  KIDNEY_L: 0.9 g
  KIDNEY_R: 0.9 g
  KIDNEY_TOTAL: 1.9 g
  LIVER: 11.5 g
  A/G: 1.7
  ALP: 562.2 IU/L
  ALT: 27.6 IU/L
  AST: 51.2 IU/L
  BUN: 24.2 mg/dL
  CRE: 0.7 mg/dL
  Ca: 11.5 mg/dL
  Cl: 106.8 meq/L
  DBIL: 0.004 mg/dL
  GLC: 180.6 mg/dL
  IP: 6.4 mg/dL
  K: 4 meq/L
  LDH: 70.2 IU/L
  Na: 141.4 meq/L
  PL: 157.4 mg/dL
  RALB: 4.3 g/dL
  TBIL: 0.2 mg/dL
  TC: 103 mg/dL
  TG: 43.4 mg/dL
  TP: 6.9 g/dL
  gamma-GTP: 2.2 IU/L
[4]
  TERMINAL_BW: 242.7 g
  APTT: 15.1 s
  Bas: 0%
  Eos: 1%
  Fbg: 171 mg/dL
  Hb: 15.8 g/dL
  Ht: 46.9%
  Lym: 85.2%
  MCH: 19.5 pg
  MCHC: 33.7%
  MCV: 57.7 fL
  Mono: 3%
  Neu: 10.8%
  PT: 14.2 s
  Plat: 82.1 x10_4/uL
  RBC: 813.2 x10_4/ul
  Ret: 0.6%
  WBC: 63 x10_2/uL
  KIDNEY_L: 0.8 g
  KIDNEY_R: 0.8 g
  KIDNEY_TOTAL: 1.6 g
  LIVER: 9.6 g
  A/G: 2
  ALP: 475.4 IU/L
  ALT: 34 IU/L
  AST: 58.4 IU/L
  BUN: 27.2 mg/dL
  CRE: 0.7 mg/dL
  Ca: 10.8 mg/dL
  Cl: 108.8 meq/L
  DBIL: 0.062 mg/dL
  GLC: 168.6 mg/dL
  IP: 5.4 mg/dL
  K: 4.3 meq/L
  LDH: 71.4 IU/L
  Na: 142.2 meq/L
  PL: 165.8 mg/dL
  RALB: 4.5 g/dL
  TBIL: 0.2 mg/dL
  TC: 105.4 mg/dL
  TG: 46.8 mg/dL
  TP: 6.8 g/dL
  gamma-GTP: 2.4 IU/L
[5]
  TERMINAL_BW: 209.7 g
  APTT: 16 s
  Bas: 0%
  Eos: 0.8%
  Fbg: 238.8 mg/dL
  Hb: 13.2 g/dL
  Ht: 39.6%
  Lym: 80.6%
  MCH: 22 pg
  MCHC: 33.3%
  MCV: 65.9 fL
  Mono: 6.4%
  Neu: 12.2%
  PT: 12.1 s
  Plat: 110 x10_4/uL
  RBC: 601.4 x10_4/ul
  Ret: 7.1%
  WBC: 144 x10_2/uL
  KIDNEY_L: 0.9 g
  KIDNEY_R: 0.9 g
  KIDNEY_TOTAL: 1.8 g
  LIVER: 12.2 g
  A/G: 1.7
  ALP: 870.8 IU/L
  ALT: 36.4 IU/L
  AST: 60.4 IU/L
  BUN: 20.2 mg/dL
  CRE: 0.5 mg/dL
  Ca: 11.5 mg/dL
  Cl: 105.4 meq/L
  DBIL: 0.008 mg/dL
  GLC: 191.6 mg/dL
  IP: 7.1 mg/dL
  K: 4.5 meq/L
  LDH: 181.2 IU/L
  Na: 138.6 meq/L
  PL: 199.6 mg/dL
  RALB: 3.8 g/dL
  TBIL: 0.3 mg/dL
  TC: 116.2 mg/dL
  TG: 94.2 mg/dL
  TP: 6.1 g/dL
  gamma-GTP: 1 IU/L
[6]
  TERMINAL_BW: 223.8 g
  APTT: 15.8 s
  Bas: 0%
  Eos: 1%
  Fbg: 239.2 mg/dL
  Hb: 13.7 g/dL
  Ht: 41.4%
  Lym: 81.2%
  MCH: 20.9 pg
  MCHC: 33.1%
  MCV: 63.2 fL
  Mono: 5.4%
  Neu: 12.4%
  PT: 13 s
  Plat: 113.5 x10_4/uL
  RBC: 655.4 x10_4/ul
  Ret: 3.8%
  WBC: 123.8 x10_2/uL
  KIDNEY_L: 0.9 g
  KIDNEY_R: 0.9 g
  KIDNEY_TOTAL: 1.8 g
  LIVER: 12.7 g
  A/G: 1.8
  ALP: 839.6 IU/L
  ALT: 29.6 IU/L
  AST: 57.8 IU/L
  BUN: 20.6 mg/dL
  CRE: 0.5 mg/dL
  Ca: 11.5 mg/dL
  Cl: 106.8 meq/L
  DBIL: 0.016 mg/dL
  GLC: 172 mg/dL
  IP: 6.8 mg/dL
  K: 4.5 meq/L
  LDH: 161.4 IU/L
  Na: 140.2 meq/L
  PL: 166.6 mg/dL
  RALB: 4.3 g/dL
  TBIL: 0.3 mg/dL
  TC: 101.6 mg/dL
  TG: 79.6 mg/dL
  TP: 6.7 g/dL
  gamma-GTP: 1.2 IU/L
[7]
  TERMINAL_BW: 241.1 g
  APTT: 17 s
  Bas: 0%
  Eos: 0%
  Fbg: 189.4 mg/dL
  Hb: 14 g/dL
  Ht: 41.9%
  Lym: 79.4%
  MCH: 20.3 pg
  MCHC: 33.3%
  MCV: 61.1 fL
  Mono: 6.2%
  Neu: 14.4%
  PT: 13.9 s
  Plat: 93.2 x10_4/uL
  RBC: 686.2 x10_4/ul
  Ret: 1.6%
  WBC: 99.7 x10_2/uL
  KIDNEY_L: 0.9 g
  KIDNEY_R: 0.9 g
  KIDNEY_TOTAL: 1.9 g
  LIVER: 12 g
  A/G: 1.8
  ALP: 489.4 IU/L
  ALT: 27.8 IU/L
  AST: 56.4 IU/L
  BUN: 23.4 mg/dL
  CRE: 0.7 mg/dL
  Ca: 11.4 mg/dL
  Cl: 107.4 meq/L
  DBIL: 0.016 mg/dL
  GLC: 176.4 mg/dL
  IP: 6.3 mg/dL
  K: 4 meq/L
  LDH: 152.8 IU/L
  Na: 141.8 meq/L
  PL: 144.8 mg/dL
  RALB: 4.4 g/dL
  TBIL: 0.2 mg/dL
  TC: 94.2 mg/dL
  TG: 32.6 mg/dL
  TP: 7 g/dL
  gamma-GTP: 1.6 IU/L
[8]
  TERMINAL_BW: 232 g
  APTT: 15.3 s
  Bas: 0%
  Eos: 0.8%
  Fbg: 180.4 mg/dL
  Hb: 15.5 g/dL
  Ht: 45.8%
  Lym: 84.6%
  MCH: 19.6 pg
  MCHC: 33.8%
  MCV: 57.9 fL
  Mono: 4.8%
  Neu: 9.8%
  PT: 14.8 s
  Plat: 86 x10_4/uL
  RBC: 791.8 x10_4/ul
  Ret: 0.7%
  WBC: 66.5 x10_2/uL
  KIDNEY_L: 0.8 g
  KIDNEY_R: 0.8 g
  KIDNEY_TOTAL: 1.6 g
  LIVER: 9.8 g
  A/G: 2
  ALP: 528 IU/L
  ALT: 34 IU/L
  AST: 65.4 IU/L
  BUN: 26.8 mg/dL
  CRE: 0.7 mg/dL
  Ca: 10.8 mg/dL
  Cl: 108 meq/L
  DBIL: 0.054 mg/dL
  GLC: 162 mg/dL
  IP: 5.5 mg/dL
  K: 4.1 meq/L
  LDH: 121.8 IU/L
  Na: 143.6 meq/L
  PL: 153 mg/dL
  RALB: 4.5 g/dL
  TBIL: 0.2 mg/dL
  TC: 101.2 mg/dL
  TG: 34.6 mg/dL
  TP: 6.8 g/dL
  gamma-GTP: 2.8 IU/L

Source: ChEMBL document CHEMBL3885861, “Open TG-GATES”
